Read-outs that look alike come from different tables or passages of the source.
Assays:
[1] = tested on: female SJL mice; experiment: EAE induced with PLP 139-151 in female SJL mice (clinical scores, spinal cord histopathology); format: in vivo; conditions: for Demyelinated foci/section / Inflammatory foci/section: spinal cord at peak of disease
[2] = tested on: male SJL mice; experiment: EAE induced with PLP 139-151 in male SJL mice; format: in vivo
[3] = tested on: B10.PL mice; experiment: EAE induced with MBP Ac1-11 in B10.PL mice; format: in vivo
[4] = cited from earlier work
[5] = tested on: draining lymph node (DLN) cells; experiment: Flow cytometry of activation and adhesion markers on DLN cells of SJL mice with EAE; format: in vivo; conditions: DLN cells at peak of EAE
Procedure: Immunofluorescent staining for flow cytometry. Draining lymph node (DLN) cells were removed during the peak of clinical symptoms and analyzed for the expression of cell surface proteins by fluorescent staining ex vivo. The following fluorochrome conjugated antibodies obtained from Pharmingen Inc. (San Diego, Calif.) were used for the direct staining of DLN cells: anti-CD4, anti-CD25, anti-CD69, anti-CD95L, anti-CD44, anti-CD62L, anti-CD49d. Two-color immunofluorescent analysis was performed on a FACScan instrument (Becton Dickinson, Mountain View, Calif.) using Cellquest software. For each experiment the cells were stained with isotype control antibodies to establish background staining, and to set the quadrants prior to calculating the percent positive staining cells. […] Alterations in the expression of adhesion or activation markers on T cells are often indicative of functional changes in the cell. Monoclonal antibodies specific for a number of these markers were used to assess whether estrogen therapy altered their expression. Draining lymph node (DLN) cells were recovered from mice during the peak of clinical EAE, incubated with the indicated fluorochrome conjugated monoclonal antibodies, and surface expression measured by fluorescent activated cell analyzer.

[6] = tested on: DLN cells; experiment: PLP 139-151 induced cytokine production by DLN cells (ELISA); format: in vivo, mice; conditions: 48-72 hours after PLP 139-151 stimulation
Procedure: Cytokine detection by ELISA. DLN cells were cultured at 4×10^6/ml and stimulated with the appropriate antigen in 24 well culture plates. Cell culture supernatants were recovered between 48-72 hr and frozen at −70° C. until needed for the cytokine assay. Measurement of cytokines was performed by ELISA using cytokine specific capture and detection antibodies (Pharmingen). Standard curves for each assay were generated using recombinant mouse cytokines (Pharmingen), and the concentration of cytokines in the cell supernatants was determined by interpolation from the appropriate standard curve. IFN-γ, TNF-α and IL-12 were chosen as representative Th1 cytokines, while IL-4 and IL-10 were measured as representative Th2 cytokines.
To determine if low dose estrogen therapy altered cytokine secretion patterns, DLN cells were prepared from individual mice at the peak of clinical EAE and cytokine levels were measured 48-72 hours after in vitro stimulation with PLP 139-151. IFN-γ, IL-12, and TNF-α were used as representative Th1 cytokines while IL-4, and IL-10 were used as representative Th2 cytokines. […] Despite the lack of statistical significance, the trend towards higher Th1 and lower Th2 cytokines points towards a subtle shift in the Th1/Th2 balance. The shift can be seen more clearly when the cytokine response of each individual mouse is plotted as a ratio of IFN-γ to IL-10 (FIG. 5C). There was a marked decrease in the frequency of high Th1 responder mice in the E2 and E3 treated groups when compared to placebo animals that approached significance (p=0.09 for the 5.0 mg E3 treated mice). Additionally, no informative trends were detected in IL-4 secretion (FIG. 5D), and TNF-α secretion was very often below the limits of detection for the assay (<31.25 pg/ml). Modest changes in cytokine responses induced by low dose estrogen therapy were also observed in the B10.PL model and were consistent with the data described for the SJL model.

C[C@]12CC[C@@H]3c4ccc(O)cc4CC[C@H]3[C@@H]1C[C@@H](O)[C@@H]2O [Estriol, estriol]
CDI (cumulative disease index) ([1]; 1.5 mg/pellet (low)): 9.3 ± 2.6 | Incidence ([1]; 1.5 mg/pellet (low)): 6/10 | Incidence (%) ([1]; 1.5 mg/pellet (low)): (60%) | Onset ([1]; 1.5 mg/pellet (low)): 16.4 ± 0.7 days | Peak (disease score) ([1]; 1.5 mg/pellet (low)): 2.0 ± 0.0 | Relapse ([1]; 1.5 mg/pellet (low)): 0/3 | Relapse (%) ([1]; 1.5 mg/pellet (low)): (0%) | Demyelinated foci/section ([1]; 2.5 mg pellet): 0.8 ± 0.2 foci/section | Inflammatory foci/section ([1]; 2.5 mg pellet): 1.2 ± 0.6 foci/section | Demyelinated foci/section ([1]; 5.0 mg pellet): 0.3 ± 0.2 foci/section | Inflammatory foci/section ([1]; 5.0 mg pellet): 0.9 ± 0.5 foci/section | CDI (cumulative disease index) ([1]; 5.0 mg/pellet (pregnancy)): 6.5 ± 9 | Incidence ([1]; 5.0 mg/pellet (pregnancy)): 2/5 | Incidence (%) ([1]; 5.0 mg/pellet (pregnancy)): (40%) | Onset ([1]; 5.0 mg/pellet (pregnancy)): 33.5 ± 5.0 days | Peak (disease score) ([1]; 5.0 mg/pellet (pregnancy)): 1.4 ± 2.2 | Relapse ([1]; 5.0 mg/pellet (pregnancy)): 0/2 | Relapse (%) ([1]; 5.0 mg/pellet (pregnancy)): (0%) | CDI (cumulative disease index) ([1]; 15.0 mg/pellet (high)): 4.4 ± 3.5 | Incidence ([1]; 15.0 mg/pellet (high)): 5/10 | Incidence (%) ([1]; 15.0 mg/pellet (high)): (50%) | Onset ([1]; 15.0 mg/pellet (high)): 23.8 ± 9 days | Peak (disease score) ([1]; 15.0 mg/pellet (high)): 1.4 ± 1.1 | Relapse ([1]; 15.0 mg/pellet (high)): 0/1 | Relapse (%) ([1]; 15.0 mg/pellet (high)): (0%) | comparison of E2 and E3 in incidence or severity of EAE ([1]; Fisher exact test, same animal model): equally protective | CDI ([2]; 2.5 mg/pellet): 3.2 ± 2.5 | Incidence ([2]; 2.5 mg/pellet): 2/3 | Incidence (%) ([2]; 2.5 mg/pellet): 67% | Onset ([2]; 2.5 mg/pellet): 16.5 ± 0.7 days | Peak (disease score) ([2]; 2.5 mg/pellet): 0.67 ± 0.6 | CDI ([2]; 5.0 mg/pellet): 2.6 ± 5.3 | Incidence ([2]; 5.0 mg/pellet): 1/4 | Incidence (%) ([2]; 5.0 mg/pellet): 25% | Onset ([2]; 5.0 mg/pellet): 16.0 ± 0 days | Peak (disease score) ([2]; 5.0 mg/pellet): 0.50 ± 1.0 | CDI ([3]; 1.5 mg/pellet (low)): 1.9 ± 1.7 | Incidence ([3]; 1.5 mg/pellet (low)): 5/8 | Incidence (%) ([3]; 1.5 mg/pellet (low)): 38% | Onset ([3]; 1.5 mg/pellet (low)): 30.3 ± 0.9 days | Peak (disease score) ([3]; 1.5 mg/pellet (low)): 1.38 ± 0.8 | CDI ([3]; 5 mg/pellet (pregnancy)): 1.0 ± 0.5 | Incidence ([3]; 5 mg/pellet (pregnancy)): 3/8 | Incidence (%) ([3]; 5 mg/pellet (pregnancy)): 38% | Onset ([3]; 5 mg/pellet (pregnancy)): 31.3 ± 0.7 days | Peak (disease score) ([3]; 5 mg/pellet (pregnancy)): 0.71 ± 0.4 | inhibitory effect on EAE compared with 17β-estradiol ([3]; B10.PL females): equivalent inhibitory effect on EAE | serum concentration from 60-day release pellet ([4]; 0.025 mg pellet): 10 to 20 pg/mL | serum concentration from 60-day release pellet ([4]; 0.1 mg pellet): 40 to 50 pg/mL | serum concentration from 60-day release pellet ([4]; 0.36 mg pellet): 150 to 200 pg/mL | serum concentration from 60-day release pellet ([4]; 1.5 mg pellet): 800-1,000 pg/ml | serum concentration from 60-day release pellet ([4]; 2.5 mg pellet): 2,000-3,000 pg/ml | serum concentration from 60-day release pellet ([4]; 5 mg pellet): 5,000-6,000 pg/ml | serum concentration from 60-day release pellet ([4]; 15 mg pellet): 10,000-15,000 pg/ml | CD4, % of Total ([5]; 2.5 mg pellet): 45% | CD25, % of CD4+ T cells ([5]; 2.5 mg pellet): 5.5% | CD44, % of CD4+ T cells ([5]; 2.5 mg pellet): 36% | CD62L, % of CD4+ T cells ([5]; 2.5 mg pellet): 12% | CD69, % of CD4+ T cells ([5]; 2.5 mg pellet): 7.5% | CD49d, % of CD4+ T cells ([5]; 2.5 mg pellet): 36% | FASL, % of CD4+ T cells ([5]; 2.5 mg pellet): 3.1% | CD4, % of Total ([5]; 5.0 mg pellet): 47% | CD25, % of CD4+ T cells ([5]; 5.0 mg pellet): 6.4% | CD44, % of CD4+ T cells ([5]; 5.0 mg pellet): 38% | CD62L, % of CD4+ T cells ([5]; 5.0 mg pellet): 8.8% | CD69, % of CD4+ T cells ([5]; 5.0 mg pellet): 8.3% | CD49d, % of CD4+ T cells ([5]; 5.0 mg pellet): 37% | FASL, % of CD4+ T cells ([5]; 5.0 mg pellet): 2.7% | IL-10 secretion by DLN cells [6]: modest increase | IL-12 secretion by DLN cells [6]: small decrease | secretion of IFN-γ by DLN cells ([6]; p>0.10): consistently lower

— patent publication US7579006B2, “Method of treating immune pathologies with low dose estrogen” (Oregon Health and Science University, priority 2000, dated 2009)
